Measurements reported in patent publication US11795169B2, “MAP4K4 inhibitors” (IMPERIAL COLLEGE INNOVATIONS LIMITED, priority 2017, dated 2023).
Where two headings read alike, the source gives them in different places. Each block holds one molecule with its values, some of them ahead of it.

Assays:
[1] = test system: CorV.4U cardiomyocytes (hiPSC-CMs); experiment: Protection of CorV.4U cardiomyocytes from H2O2 or menadione (luminescent cell viability assay, human cardiac troponin assay); type: cell-based; settings: Homo sapiens, Cardiomyocyte; read-out: EC50, protection of human cardiomyocytes
From the text: To substantiate the hypothesis that pharmacological inhibition of MAP4K4 would confer resistance to cell death in human cardiomyocytes, cytoprotection was next assessed using hiPSC-CMs.

GLK/MAP4K3 = GLK/MAP4K3 (Homo sapiens (Human), UniProt Q8IVH8); experiment: Kinase selectivity panel: GLK/MAP4K3; type: biochemical; settings: for IC50: read-out: pIC50 GLK/MAP4K3 (converted)
From the text: (§1) Compounds of the present invention were screened for their inhibitory activity against MAP4K4, versus selected off-target hits found with early members of this chemical series. MAP4K4 kinase activity was monitored using the CisBio HTRF Transcreener ADP assay, acompetitive immunoassay with a reproducible Z′>0.6. In the detection step, endogenous ADP and d2-labeled ADP compete for binding an anti-ADP monoclonal antibody labelled with Eu^3+ cryptate. A ratiometric fluorescent read-out is used at 665 and 620 nm. […] Assays were run in Greiner low volume plates with a final reaction volume of 10 μl. The MAP4K4 inhibition data are provided in Table 33 below for selected compounds of the present invention. The data has been categorised based on the IC50 value of the compound as “A”, “B” or “C”.
(§2) The data in Table 34 also provides the fold selectivity of the two compounds in favour of MAP4K4 over the tested kinase. The fold selectivity is indicated in parenthesis.

FLT3 = FLT3 (Homo sapiens (Human), UniProt P36888); experiment: Kinase selectivity panel: FLT3; type: biochemical; settings: for IC50: read-out: pIC50 FLT3 (converted)
From the text: as §1, §2

MLK1/MAP3K9 = MLK1/MAP3K9 (Homo sapiens (Human), UniProt P80192); experiment: Kinase selectivity panel: MLK1/MAP3K9; type: biochemical; settings: for IC50: read-out: pIC50 MLK1/MAP3K9 (converted)
From the text: as §1, §2

ABL1 = ABL1 (Homo sapiens (Human), UniProt P00519); experiment: Kinase selectivity panel: ABL1; type: biochemical; settings: for IC50: read-out: pIC50 ABL1 (converted)
From the text: as §1, §2

NUAK = experiment: Kinase selectivity panel: NUAK; type: biochemical
Method: (§3) In the detection step, endogenous ADP and d2-labeled ADP compete for binding an anti-ADP monoclonal antibody labelled with Eu^3+ cryptate. […] Assays were run in Greiner low volume plates with a final reaction volume of 10 μl.
(§4) The fold selectivity is indicated in parenthesis.

TNIK/MAP4K7 = TNIK/MAP4K7 (Homo sapiens (Human), UniProt Q9UKE5); experiment: Kinase selectivity panel: TNIK/MAP4K7; type: biochemical; settings: read-out: pIC50 TNIK/MAP4K7 (converted)
From the text: as §1, §2

GCK/MAP4K2 = GCK/MAP4K2 (Homo sapiens (Human), UniProt Q12851); experiment: Kinase selectivity panel: GCK/MAP4K2; type: biochemical; settings: for IC50: read-out: pIC50 GCK/MAP4K2 (converted)
From the text: as §1, §2

[2] = target: human MAP4K4 kinase domain (Homo sapiens (Human), UniProt O95819); experiment: MAP4K4 kinase activity, CisBio HTRF Transcreener ADP assay; type: biochemical
From the text: as §1

MLK3/MAP3K11 = MLK3/MAP3K11 (Homo sapiens (Human), UniProt Q16584); experiment: Kinase selectivity panel: MLK3/MAP3K11; type: biochemical; settings: for IC50: read-out: pIC50 MLK3/MAP3K11 (converted)
From the text: as §1, §2

MINK1/MAP4K6 = MINK1/MAP4K6 (Homo sapiens (Human), UniProt Q8N4C8); experiment: Kinase selectivity panel: MINK1/MAP4K6; type: biochemical; settings: read-out: pIC50 MINK1/MAP4K6 (converted)
From the text: as §1, §2

VEGFR = experiment: Kinase selectivity panel: VEGFR; type: biochemical
Method: as §3, §4

KHS/MAP4K5 = KHS/MAP4K5 (Homo sapiens (Human), UniProt Q9Y4K4); experiment: Kinase selectivity panel: KHS/MAP4K5; type: biochemical; settings: for IC50: read-out: pIC50 KHS/MAP4K5 (converted)
From the text: as §1, §2

Aurora B = Aurora B (Homo sapiens (Human), UniProt Q96GD4); experiment: Kinase selectivity panel: Aurora B; type: biochemical; settings: for IC50: read-out: pIC50 Aurora B (converted)
From the text: as §1, §2

GSK3β = GSK3β (Homo sapiens (Human), UniProt P49841); experiment: Kinase selectivity panel: GSK3β; type: biochemical; settings: for IC50: read-out: pIC50 GSK3β (converted)
From the text: as §1, §2

[3] = ATP at Km (10 μM), 0.5 nM kinase domain, 2 h, read-out: MAP4K4
[4] = read-out: pIC50 MAP4K4 (converted)

Chain of TNIK/MAP4K7 (Q9UKE5 whole entry): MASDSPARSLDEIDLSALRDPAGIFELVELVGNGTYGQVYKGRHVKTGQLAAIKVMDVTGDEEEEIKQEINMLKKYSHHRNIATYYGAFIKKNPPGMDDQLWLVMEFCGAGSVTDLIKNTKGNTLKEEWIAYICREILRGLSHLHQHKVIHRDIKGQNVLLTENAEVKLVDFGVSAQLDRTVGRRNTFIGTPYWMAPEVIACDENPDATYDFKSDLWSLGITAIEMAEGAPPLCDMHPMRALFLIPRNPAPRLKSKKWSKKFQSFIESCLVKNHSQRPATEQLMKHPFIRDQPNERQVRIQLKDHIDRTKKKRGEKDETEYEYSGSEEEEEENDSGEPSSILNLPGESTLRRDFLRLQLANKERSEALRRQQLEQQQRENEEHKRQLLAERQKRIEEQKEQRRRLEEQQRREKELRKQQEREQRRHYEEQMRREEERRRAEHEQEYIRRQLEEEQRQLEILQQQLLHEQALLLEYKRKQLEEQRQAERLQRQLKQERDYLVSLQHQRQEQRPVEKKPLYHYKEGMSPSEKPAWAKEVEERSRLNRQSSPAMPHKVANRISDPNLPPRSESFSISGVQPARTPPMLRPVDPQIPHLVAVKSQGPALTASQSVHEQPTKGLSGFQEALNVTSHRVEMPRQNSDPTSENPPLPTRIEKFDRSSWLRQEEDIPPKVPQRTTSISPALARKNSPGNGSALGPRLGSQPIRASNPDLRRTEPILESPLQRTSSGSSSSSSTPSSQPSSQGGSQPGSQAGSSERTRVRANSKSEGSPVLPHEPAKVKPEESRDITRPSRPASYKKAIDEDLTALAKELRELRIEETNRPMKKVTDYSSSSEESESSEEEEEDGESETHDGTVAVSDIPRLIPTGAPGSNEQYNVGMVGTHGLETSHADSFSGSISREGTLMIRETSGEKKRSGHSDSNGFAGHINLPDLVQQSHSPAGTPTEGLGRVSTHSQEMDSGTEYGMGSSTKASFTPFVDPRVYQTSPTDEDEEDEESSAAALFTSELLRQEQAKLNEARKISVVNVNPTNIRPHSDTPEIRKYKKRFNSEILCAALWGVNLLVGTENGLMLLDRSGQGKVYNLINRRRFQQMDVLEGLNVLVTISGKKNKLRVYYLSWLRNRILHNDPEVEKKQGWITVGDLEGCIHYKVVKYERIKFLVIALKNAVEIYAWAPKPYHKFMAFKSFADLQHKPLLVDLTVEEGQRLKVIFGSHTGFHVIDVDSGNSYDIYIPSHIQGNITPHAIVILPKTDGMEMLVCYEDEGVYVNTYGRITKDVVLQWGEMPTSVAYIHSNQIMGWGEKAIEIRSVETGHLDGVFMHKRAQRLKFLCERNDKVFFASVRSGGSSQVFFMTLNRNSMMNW
Chain of Aurora B (Q96GD4 whole entry): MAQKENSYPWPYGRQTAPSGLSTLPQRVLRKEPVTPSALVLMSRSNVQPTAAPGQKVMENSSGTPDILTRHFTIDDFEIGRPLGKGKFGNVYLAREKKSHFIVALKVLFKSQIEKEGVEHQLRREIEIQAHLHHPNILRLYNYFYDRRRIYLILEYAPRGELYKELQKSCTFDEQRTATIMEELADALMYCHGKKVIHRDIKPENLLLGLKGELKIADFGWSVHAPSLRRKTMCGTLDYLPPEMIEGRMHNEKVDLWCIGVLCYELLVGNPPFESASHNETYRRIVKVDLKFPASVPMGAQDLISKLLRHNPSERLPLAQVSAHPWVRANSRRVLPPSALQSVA
Chain of MLK3/MAP3K11 (Q16584 whole entry): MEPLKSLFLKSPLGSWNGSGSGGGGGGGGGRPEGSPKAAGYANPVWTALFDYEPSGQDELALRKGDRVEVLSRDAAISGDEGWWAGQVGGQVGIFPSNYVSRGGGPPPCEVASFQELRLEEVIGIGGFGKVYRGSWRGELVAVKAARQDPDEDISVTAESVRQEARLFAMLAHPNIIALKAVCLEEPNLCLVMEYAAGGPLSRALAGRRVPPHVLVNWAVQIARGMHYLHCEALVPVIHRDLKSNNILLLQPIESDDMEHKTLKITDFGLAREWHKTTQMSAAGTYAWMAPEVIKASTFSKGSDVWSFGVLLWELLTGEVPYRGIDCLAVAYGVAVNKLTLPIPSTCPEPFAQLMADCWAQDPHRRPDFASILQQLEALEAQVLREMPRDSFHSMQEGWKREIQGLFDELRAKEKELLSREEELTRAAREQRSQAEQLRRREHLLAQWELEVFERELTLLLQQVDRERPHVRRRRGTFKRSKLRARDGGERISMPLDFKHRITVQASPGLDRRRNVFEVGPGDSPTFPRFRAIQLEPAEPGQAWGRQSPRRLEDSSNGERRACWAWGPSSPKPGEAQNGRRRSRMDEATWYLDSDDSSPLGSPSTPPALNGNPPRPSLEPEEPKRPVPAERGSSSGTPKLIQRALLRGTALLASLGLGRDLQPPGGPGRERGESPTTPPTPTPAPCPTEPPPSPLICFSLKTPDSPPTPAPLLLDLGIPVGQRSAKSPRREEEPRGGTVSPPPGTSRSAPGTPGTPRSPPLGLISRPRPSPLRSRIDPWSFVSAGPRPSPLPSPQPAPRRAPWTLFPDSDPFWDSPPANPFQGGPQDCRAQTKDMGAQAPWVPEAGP
Chain of FLT3 (P36888 27-993, species assumed): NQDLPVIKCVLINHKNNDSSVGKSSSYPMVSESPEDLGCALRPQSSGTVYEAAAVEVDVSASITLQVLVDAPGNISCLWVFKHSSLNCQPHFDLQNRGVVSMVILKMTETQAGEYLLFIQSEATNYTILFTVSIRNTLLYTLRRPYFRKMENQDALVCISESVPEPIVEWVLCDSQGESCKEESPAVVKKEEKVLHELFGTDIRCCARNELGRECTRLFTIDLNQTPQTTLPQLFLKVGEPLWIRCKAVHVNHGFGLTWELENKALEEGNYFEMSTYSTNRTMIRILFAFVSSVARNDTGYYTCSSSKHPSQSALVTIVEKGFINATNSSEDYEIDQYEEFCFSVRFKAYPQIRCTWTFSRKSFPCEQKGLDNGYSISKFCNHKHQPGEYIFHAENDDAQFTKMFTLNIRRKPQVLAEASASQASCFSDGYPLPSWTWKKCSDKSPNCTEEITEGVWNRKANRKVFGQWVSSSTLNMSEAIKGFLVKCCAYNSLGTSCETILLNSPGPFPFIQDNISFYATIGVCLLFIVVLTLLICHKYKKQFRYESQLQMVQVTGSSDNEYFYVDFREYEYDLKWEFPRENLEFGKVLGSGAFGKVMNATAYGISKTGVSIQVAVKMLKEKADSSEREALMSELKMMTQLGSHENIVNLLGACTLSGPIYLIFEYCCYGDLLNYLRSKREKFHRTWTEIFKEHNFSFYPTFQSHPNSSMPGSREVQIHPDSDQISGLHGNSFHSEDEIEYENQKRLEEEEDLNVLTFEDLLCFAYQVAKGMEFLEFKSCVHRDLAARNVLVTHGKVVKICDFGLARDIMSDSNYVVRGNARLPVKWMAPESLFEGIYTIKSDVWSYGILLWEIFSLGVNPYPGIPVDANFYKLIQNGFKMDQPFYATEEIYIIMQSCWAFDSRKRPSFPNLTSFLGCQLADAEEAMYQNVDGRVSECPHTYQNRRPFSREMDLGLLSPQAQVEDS
Chain of MLK1/MAP3K9 (P80192 whole entry): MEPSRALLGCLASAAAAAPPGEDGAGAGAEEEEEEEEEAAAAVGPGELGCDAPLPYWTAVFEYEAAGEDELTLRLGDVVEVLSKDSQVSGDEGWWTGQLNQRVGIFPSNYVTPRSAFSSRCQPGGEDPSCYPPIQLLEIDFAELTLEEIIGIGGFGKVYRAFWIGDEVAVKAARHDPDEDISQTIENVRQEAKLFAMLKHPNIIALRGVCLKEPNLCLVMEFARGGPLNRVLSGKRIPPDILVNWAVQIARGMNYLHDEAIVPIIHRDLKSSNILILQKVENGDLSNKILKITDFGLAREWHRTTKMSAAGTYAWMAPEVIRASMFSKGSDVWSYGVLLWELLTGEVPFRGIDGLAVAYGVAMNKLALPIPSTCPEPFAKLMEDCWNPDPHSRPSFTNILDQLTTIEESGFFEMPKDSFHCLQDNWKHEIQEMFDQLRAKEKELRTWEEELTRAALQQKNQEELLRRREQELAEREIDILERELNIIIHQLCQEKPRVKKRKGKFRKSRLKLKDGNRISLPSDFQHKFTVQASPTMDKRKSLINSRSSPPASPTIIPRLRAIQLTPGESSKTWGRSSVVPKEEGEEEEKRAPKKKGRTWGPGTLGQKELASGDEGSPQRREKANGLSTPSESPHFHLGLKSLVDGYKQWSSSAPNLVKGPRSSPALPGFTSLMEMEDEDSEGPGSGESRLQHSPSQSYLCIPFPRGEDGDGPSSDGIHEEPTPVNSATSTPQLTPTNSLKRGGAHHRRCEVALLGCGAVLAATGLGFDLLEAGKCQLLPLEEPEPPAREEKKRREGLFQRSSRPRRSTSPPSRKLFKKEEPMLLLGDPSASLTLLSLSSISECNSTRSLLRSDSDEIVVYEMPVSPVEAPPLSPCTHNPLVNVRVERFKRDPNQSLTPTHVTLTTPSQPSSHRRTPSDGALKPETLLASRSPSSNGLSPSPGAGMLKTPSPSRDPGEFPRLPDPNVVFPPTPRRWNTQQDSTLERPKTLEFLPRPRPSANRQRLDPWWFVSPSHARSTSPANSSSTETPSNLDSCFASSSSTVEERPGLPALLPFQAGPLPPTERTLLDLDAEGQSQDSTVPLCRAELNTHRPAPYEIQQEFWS
Chain of human MAP4K4 kinase domain (O95819 25-289): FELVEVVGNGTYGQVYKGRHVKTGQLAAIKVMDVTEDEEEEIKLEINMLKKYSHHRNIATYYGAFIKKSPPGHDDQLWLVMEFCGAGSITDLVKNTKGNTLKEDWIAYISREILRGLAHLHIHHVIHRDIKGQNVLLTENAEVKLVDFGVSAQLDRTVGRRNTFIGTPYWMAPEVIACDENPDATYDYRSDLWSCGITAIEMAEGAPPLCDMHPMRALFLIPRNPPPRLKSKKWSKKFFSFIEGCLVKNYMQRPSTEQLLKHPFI

SMILES: CC(C)(O)CCOc1ccc(-c2cn(-c3ccccc3)c3nc[nH]c(=O)c23)cc1F [Ex-123]
EC50 [1]: < 1000 nM

SMILES: CC(C)(O)CCOc1ccc(-c2cn(-c3ccccc3)c3nc[nH]c(=O)c23)cc1 [Ex-40, 5-(4-(3-hydroxy-3-methylbutoxy)phenyl)-7-phenyl-3,7-dihydro-4H-pyrrolo[2,3-d]pyrimidin-4-one]
EC50 [1]: < 1000 nM
IC50 [2, 3]: ≤ 100 nM

SMILES: COc1cccc(-c2cn(-c3ccccc3)c3nc[nH]c(=O)c23)c1 [Ex-22]
fold selectivity for MAP4K4 over GLK/MAP4K3 (GLK/MAP4K3): (199) fold
IC50 (GLK/MAP4K3): 31.6 µM
fold selectivity for MAP4K4 over FLT3 (FLT3): (199) fold
IC50 (FLT3): 31.6 µM
fold selectivity for MAP4K4 over MLK1/MAP3K9 (MLK1/MAP3K9): (25) fold
IC50 (MLK1/MAP3K9): 3980 nM
fold selectivity for MAP4K4 over ABL1 (ABL1): (199) fold
IC50 (ABL1): 31.6 µM
IC50 (TNIK/MAP4K7): 200 nM
fold selectivity for MAP4K4 over GCK/MAP4K2 (GCK/MAP4K2): (50) fold
IC50 (GCK/MAP4K2): 7940 nM
IC50 [2, 3]: 100 to 1000 nM
IC50 [2, 4]: 158 nM
fold selectivity for MAP4K4 over MLK3/MAP3K11 (MLK3/MAP3K11): (199) fold
IC50 (MLK3/MAP3K11): 31.6 µM
IC50 (MINK1/MAP4K6): 6.61 nM
fold selectivity for MAP4K4 over VEGFR (VEGFR): (79) fold
pIC50 VEGFR (VEGFR): 4.9
fold selectivity for MAP4K4 over GSK3β (GSK3β): (199) fold
IC50 (GSK3β): 31.6 µM
fold selectivity for MAP4K4 over KHS/MAP4K5 (KHS/MAP4K5): (199) fold
IC50 (KHS/MAP4K5): 437 nM
fold selectivity for MAP4K4 over Aurora B (Aurora B): (199) fold
IC50 (Aurora B): 31.6 µM

SMILES: CC(C)(O)CCOc1ccc(-c2cn(-c3ccccc3)c3nc[nH]c(=O)c23)c(F)c1 [Ex-107, 5-(2-fluoro-4-(3-hydroxy-3-methylbutoxy)phenyl)-7-phenyl-3,7-dihydro-4H-pyrrolo[2,3-d]pyrimidin-4-one]
EC50 [1]: < 1000 nM

SMILES: O=C(O)c1ccc(-n2cc(-c3ccccc3)c3c(=O)[nH]cnc32)cc1 [Ex-1, 4-(4-Oxo-5-phenyl-3,4-dihydro-pyrrolo[2,3-d]pyrimidin-7-yl)-benzoic acid]
IC50 [2, 3]: 100 to 1000 nM

SMILES: O=C1CCCN1c1ccc(-c2cn(-c3cccc(F)c3)c3nc[nH]c(=O)c23)cc1 [Ex-25]
IC50 [2, 3]: ≤ 100 nM

SMILES: O=c1[nH]cnc2c1c(-c1ccc(OCCCN3CCOCC3)cc1)cn2-c1ccccc1 [Ex-27]
fold selectivity for MAP4K4 over GLK/MAP4K3 (GLK/MAP4K3): (251) fold
IC50 (GLK/MAP4K3): 1.58 µM
fold selectivity for MAP4K4 over FLT3 (FLT3): (1258) fold
IC50 (FLT3): 7.94 µM
fold selectivity for MAP4K4 over MLK1/MAP3K9 (MLK1/MAP3K9): (13) fold
IC50 (MLK1/MAP3K9): 79.4 nM
fold selectivity for MAP4K4 over ABL1 (ABL1): (501) fold
IC50 (ABL1): 3.16 µM
IC50 (TNIK/MAP4K7): 10 nM
fold selectivity for MAP4K4 over GCK/MAP4K2 (GCK/MAP4K2): (31) fold
IC50 (GCK/MAP4K2): 200 nM
IC50 [2, 3]: ≤ 100 nM
IC50 [2, 4]: 6.31 nM
IC50 (MINK1/MAP4K6): 6.31 nM
fold selectivity for MAP4K4 over VEGFR (VEGFR): (125) fold
pIC50 VEGFR (VEGFR): 6.1
fold selectivity for MAP4K4 over GSK3β (GSK3β): (5011) fold
IC50 (GSK3β): 31.6 µM
fold selectivity for MAP4K4 over KHS/MAP4K5 (KHS/MAP4K5): (6) fold
IC50 (KHS/MAP4K5): 39.8 nM
fold selectivity for MAP4K4 over Aurora B (Aurora B): (1584) fold
IC50 (Aurora B): 10 µM

Further lines, results first:

fold selectivity for MAP4K4 over GLK/MAP4K3 (GLK/MAP4K3): (6309) fold
IC50 (GLK/MAP4K3): 31.6 µM
fold selectivity for MAP4K4 over FLT3 (FLT3): (3162) fold
IC50 (FLT3): 15.8 µM
fold selectivity for MAP4K4 over MLK1/MAP3K9 (MLK1/MAP3K9): (39) fold
IC50 (MLK1/MAP3K9): 200 nM
fold selectivity for MAP4K4 over ABL1 (ABL1): (398) fold
IC50 (ABL1): 2 µM
fold selectivity for MAP4K4 over NUAK (NUAK): (501) fold
pIC50 NUAK (NUAK): 5.6
IC50 (TNIK/MAP4K7): 20 nM
fold selectivity for MAP4K4 over GCK/MAP4K2 (GCK/MAP4K2): (79) fold
IC50 (GCK/MAP4K2): 398 nM
IC50 [2, 3]: ≤ 100 nM
IC50 [2, 4]: 5.01 nM
fold selectivity for MAP4K4 over MLK3/MAP3K11 (MLK3/MAP3K11): (39) fold
IC50 (MLK3/MAP3K11): 0.2 µM
IC50 (MINK1/MAP4K6): 7.94 nM
fold selectivity for MAP4K4 over VEGFR (VEGFR): (6309) fold
pIC50 VEGFR (VEGFR): 4.5
fold selectivity for MAP4K4 over KHS/MAP4K5 (KHS/MAP4K5): (199) fold
IC50 (KHS/MAP4K5): 1000 nM
fold selectivity for MAP4K4 over Aurora B (Aurora B): (1258) fold
IC50 (Aurora B): 6.31 µM
SMILES: O=c1[nH]cnc2c1c(-c1ccc(OCCO)cc1F)cn2-c1ccccc1 [Ex-56, 5-[2-Fluoro-4-(2-hydroxy-ethoxy)-phenyl]-7-phenyl-3,7-dihydro-pyrrolo[2,3-d]pyrimidin-4-one]

IC50 [2, 3]: 100 to 1000 nM
SMILES: O=c1[nH]cnc2c(-c3ccc(OCC(O)CN4CCCC4)cc3)cn(-c3ccccc3)c12 (stereo not drawn) [Ex-91]

IC50 [2, 3]: > 1000 nM
SMILES: CCOC(=O)c1ccc(-c2cn(-c3ccccc3)c3c(=O)[nH]cnc23)cc1 [Ex-98]

IC50 [2, 3]: ≤ 100 nM
SMILES: O=c1[nH]cnc2c1c(-c1ccc(OCC(O)CO)cc1)cn2-c1ccccc1 (stereo not drawn) [Ex-68]

IC50 [2, 3]: 100 to 1000 nM
SMILES: C[C@@H](O)COc1ccc(-c2cn(-c3ccccc3)c3c(=O)[nH]cnc23)cc1 [Ex-92]

IC50 [2, 3]: ≤ 100 nM
SMILES: N#Cc1cc(-c2cn(-c3ccccc3)c3nc[nH]c(=O)c23)ccc1OCC(O)CN1CCOCC1 (stereo not drawn) [Ex-49]
